Measured values taken from patent US20180118707A1, “BETA-NAPHTHOISOFLAVONES, COMPOSITIONS CONTAINING, AND USES OF, SAME” (Thesan Pharmaceuticals, Inc., priority 2015, published 2018).

Assays:
CYP1A1 [1] = assay: Induction of CYP1A1 enzyme in HepG2 cells, EROD assay; assay type: cell-based, human; conditions: human, probe 7-ethoxyresorufin (8 μM)
Method: (§1) The formation of resorufin is quantified by fluorometry with a fluorescence plate reader. Fluorescence is determined at λex 570 nm and λem 590 nm. The amount of resorufin is calculated from a standard curve generated using 0 to 1 μM resorufin in water at ½ log dilutions. The remaining (i.e. all cells present at the beginning of analysis, since only supernatant is taken to assay EROD) live cells are subsequently utilized for the MIT cytotoxicity assay. MTT is made up in serum-free medium at 5 mg/ml. then added to the cells giving a final concentration of 10% (0.5 mg/ml MTT final) then incubated for 2 h. The medium is carefully removed, then MTT formazan is solubilized by adding 200 μl of DMSO and subsequently mixed on a plate shaker. The absorbance is measured spectra photometrically at 550 nm and background absorbance at 690 nm is subtracted. A standard curve generated using MIT formazan (dissolved in DMSO) from O—200 μM (0, 2, 5, 10, 20, 50, 100, 200 μM) is used to calculate the final experimental values which are then expressed as (wnol resarufin/mol MTT formazan) or as fold-Induction compared to solvent.

HepG2 cells = assay: MTT cytotoxicity assay in HepG2 cells after EROD; assay type: cell-based, human
Method: as §1, with “subtracted.” for “subtracted. A standard curve generated using MIT formazan (dissolved in DMSO) from O—200 μM (0, 2, 5, 10, 20, 50, 100, 200 μM) is used to calculate the final experimental values which are then expressed as (wnol resarufin/mol MTT formazan) or as fold-Induction compared to solvent.”

CYP1A1 [2] = assay: Induction of CYP1A1 enzyme in human cultured sebocytes, EROD assay; assay type: cell-based; conditions: cultured sebocytes, probe 7-ethoxyresorufin (8 μM)
Method: Cells are seeded at between 1×10^4 and 2.5×10^4 cells/well in a 96-well microtitre plate. […] 100 μl of medium is then transferred to a fresh black 96-well plate and 130 μl methanol added. The formation of resorufin is quantified by fluorometry with a fluorescence plate reader. Fluorescence is determined at λex 570 nm and λem 590 nm. The amount of resorufin is calculated from a standard curve generated using 0 to 1 μM resorufin in water at ½ log dilutions. The remaining (i.e. all cells present at the beginning of analysis, since only supernatant is taken to assay EROD) live cells are subsequently utilized for the MU cytotoxicity assay. MU is made up in serum-free medium at 5 mg/mi. then added to the cells giving a final concentration of 10% (0.5 mg/ml MIT final) then incubated for 2 h. The medium is carefully removed, then MIT formazan is solubilized by adding 200 μl of DMSO and subsequently mixed on a plate shaker. The absorbance is measured spectrophotometrically at 550 nm and background absorbance at […] is subtracted. A standard curve generated using MTT formazan (dissolved in DMSO) from O—200 μM (0, 2, 5, 10, 20, 50, 100, 200 μM) is used to calculate the final experimental values which are then expressed as (μmol resorufin/mol MTT formazan) or as fold-induction compared to solvent.

human sebocyte cells = assay: MTT cytotoxicity assay in human cultured sebocytes after EROD; assay type: cell-based
Method: The essential methodology for culture and handling of human cultured sebocytes has been described in earlier examples for HEPG2 and NHK cells. Cells are seeded at between 1×10^4 and 2.5×10^4 cells/well in a 96-well microtitre plate. […] The formation of resorufin is quantified by fluorometry with a fluorescence plate reader. Fluorescence is determined at λex 570 nm and λem 590 nm. The amount of resorufin is calculated from a standard curve generated using 0 to 1 μM resorufin in water at ½ log dilutions. The remaining (i.e. all cells present at the beginning of analysis, since only supernatant is taken to assay EROD) live cells are subsequently utilized for the MU cytotoxicity assay. MU is made up in serum-free medium at 5 mg/mi. then added to the cells giving a final concentration of 10% (0.5 mg/ml MIT final) then incubated for 2 h. The medium is carefully removed, then MIT formazan is solubilized by adding 200 μl of DMSO and subsequently mixed on a plate shaker. The absorbance is measured spectrophotometrically at 550 nm and background absorbance at […] is subtracted. A standard curve generated using MTT formazan (dissolved in DMSO) from O—200 μM (0, 2, 5, 10, 20, 50, 100, 200 μM) is used to calculate the final experimental values which are then expressed as (μmol resorufin/mol MTT formazan) or as fold-induction compared to solvent.

sebaceous glands = assay: Mouse ear assay for determination of sebaceous gland prevalence; assay type: in vivo; conditions: C57BL/6 mice, ears, 1% solution in DMSO:acetone 50:50 twice a day for five days, vs controls
Method: C57BL/6.I male mice (Harlan Models), approximately 4-5 weeks of age, body weight 20-30 g, were acclimatized (individually housed) for 5 days in a 12 hour light/dark cycle standard laboratory environment (T=20-24° C., relative humidity 30-70%, 15-20 air changes per hour) with access to water and standard rodent chow (Harlan Teklad 2014C supplied by Harlan Laboratories Models, S.L.) ad libitum. Animals were anesthetized with isoflurane and the test article (80 ul, 1% solution in DMSO:acetone 50:50) was administered to the outer surface of each of the ears of between 2 and 5 mice twice a day for five days by dermal application using a micropipette tip (a little volume of the solution was also applied on the inner side of the ears). All animals were monitored daily for reaction to the treatment, signs of illness, and behavioral changes. Body weights were recorded before the first administration and immediately prior to sacrifice. Approximately 12 to 16 hours after the final administration on day 5 the mice were sacrificed by i.p. injection of sodium pentobarbital (200 mg/kg) and the ears were collected. Each ear was sectioned into two halves. For each animal, one-half of one ear was fixed, in neutral phosphate-buffered 4% formaldehyde solution (4% formalin). This trimmed section of the ear was then processed, embedded in paraffin wax and stored at room temperature. […]

Row | Compound | EC50 at 24 h (CYP1A1 [1]) | Toxicity threshold (HepG2 cells) | EC50 at 24 h (CYP1A1 [2]) | Toxicity threshold (human sebocyte cells) | number of differentiated sebocytes (sebaceous glands) | number of sebaceous glands (sebaceous glands)
1 | O=c1c(-c2ccccc2)coc2ccc3ccccc3c12 [Compound B] | 1000 nM | >30 µM | 50 nM | >30 µM | reduction | clear reduction
2 | COc1ccccc1-c1coc2ccc3ccccc3c2c1=O [Compound F] | 2000 nM | >30 µM | 200 nM | 50 µM |  | 
3 | COc1cccc(-c2coc3ccc4ccccc4c3c2=O)c1 [Compound G] | 2000 nM | 100 µM | 250 nM | 30 µM |  | 
4 | O=c1c(-c2cccc(O)c2)coc2ccc3ccccc3c12 [Compound H] | 1500 nM | >100 µM | 250 nM | >30 µM |  | 
5 | O=c1c(-c2ccc(O)cc2)coc2ccc3ccccc3c12 [Compound J] | 1500 nM | 100 µM | 50 nM | >30 µM |  | 
